Experimental data: patent publication US20210008012A1, “NOVEL APPLICATIONS OF DISULFIRAM AND DERIVATIVES THEREOF” (GENEHEAL BIOTECHNOLOGY CO., LTD., priority 2017, published 2021)

System: PAICS
Assay: Animal experiments: inhibition of SAICAR accumulation
Assay type: in vivo
Conditions: "can reach"
Text: By inhibiting the activity of PAICS, the accumulation of toxic compound […] is reduced, which proves that the compound disulfiram can effectively treat rare disease ADSL deficiency.

Structure (SMILES): CCN(CC)C(=S)SSC(=S)N(CC)CC [disulfiram, Disulfiram]
- inhibition ratio against SAICAR accumulation: 87.11%
